Broadly, the IC50 is the concentration that gives 50% inhibition.

The test system of one assay is P. falciparum strain W2. Briefly: [3H]-hypoxanthine growth inhibition assay, P. falciparum W2. The assay is classed as cell-based. Conditions: Plasmodium falciparum. The essentials: (§1)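 Parasites cultured in human O Rh+ RBCs in RPMI-1640-LPLF (low PABA and folic acid) with 10% human plasma, pH 6.9, 37° C, 5% O2/5% CO2/90% N2. Sorbitol-synchronised ring-stage cultures started at 1% parasitaemia; growth measured as [3H]-hypoxanthine incorporation in hypoxanthine-free medium. Compound stocks 1 mM in DMSO.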

For assay [1], the system named is Plasmodium berghei (KBG-173 strain). Put plainly: Plasmodium berghei assay in vivo (modified Thompson Test) in CD-1 mice. As to conditions: for Average Days Survival: 31 day experiment. Here is the method:
In vivo antimalarial activity was tested in male or female Charles River CD-1 mice that were 4-5 weeks old and weighed 20-25 g They were housed in groups of 3 or 4 in standard plastic cages with wire tops, Bed-o-Cob® bedding, 12 hr/day of light, and maintained at 75° F. They were fed a standard Ralston Purina mouse chow and the cages and bottles were changed twice a week. Test compounds were ground in a mortar and pestle and diluted with enough vehicle to give a volume of 10 mL/kg of mouse weight. The oral doses were prepared in 0.5% hydroxyethylcellulose (Union Carbide Corp. WP 4400)/0.1% Tween-80 (Fisher Scientific T164-500). The amount of drug was calculated on the free base weight. The mice were infected intraperitoneally on day 0 with 5×10^4 erythrocytes parasitized with Plasmodium berghei (KBG-173 strain) from a donor mouse having a parasitemia between 5-10%. On days 3, 4 and 5 the test compounds were administered bid, spaced 6 hr apart, by oral gavage to the mice. Activity was measured by survival, with full activity defined as all animals living at day 31. Partial activity is defined as days of increased survival versus the infected non-treated controls. This in vivo model is a modification of the Thompson Test. For further description see Ager, A. L, Jr. Rodent Malaria Models. In Handbook of Experimental Pharmacology: Antimalarial Drugs. 1. 68/1; Peters, W., Richards, W. H. G., Eds.: Springer-Verlag: Berlin, 1984, pp. 231-33.

A further assay relates to P. falciparum strain D6. Briefly: [3H]-hypoxanthine growth inhibition assay, P. falciparum D6. The assay is classed as cell-based. As to conditions: Plasmodium falciparum. In a few lines:
as §1

Where [2] appears, read: 4 mg/kg/day oral, bid on days 3, 4 and 5.
Where [3] appears, read: 16 mg/kg/day oral, bid on days 3, 4 and 5.
Setting [4] is: 64 mg/kg/day oral, bid on days 3, 4 and 5.
The mark [5] stands for this setting: Plasmodium berghei, po, 744 h, read-out: Number of mice alive at day 31.
Where [6] appears, read: P. falciparum W2 (resistant to chloroquine and pyrimethamine), [3H]-hypoxanthine incorporation, read-out: W2 IC50.
Where [7] appears, read: 8 mg/kg/day oral, bid on days 3, 4 and 5.
Setting [8] is: 32 mg/kg/day oral, bid on days 3, 4 and 5.
Setting [9] is: Plasmodium berghei, 744 h, 4 mg/kg/day oral, bid on days 3, 4 and 5, CD-1 mice infected with P. berghei, read-out: Number of mice alive at day 31 (converted).
[10] abbreviates: Plasmodium berghei, 744 h, 8 mg/kg/day oral, bid on days 3, 4 and 5, CD-1 mice infected with P. berghei, read-out: Number of mice alive at day 31 (converted).
The mark [11] stands for this setting: Plasmodium berghei, 744 h, 16 mg/kg/day oral, bid on days 3, 4 and 5, CD-1 mice infected with P. berghei, read-out: Number of mice alive at day 31 (converted).
Where [12] appears, read: Plasmodium berghei, 744 h, 32 mg/kg/day oral, bid on days 3, 4 and 5, CD-1 mice infected with P. berghei, read-out: Number of mice alive at day 31 (converted).
Setting [13] is: Plasmodium berghei, 744 h, 64 mg/kg/day oral, bid on days 3, 4 and 5, CD-1 mice infected with P. berghei, read-out: Number of mice alive at day 31 (converted).
[14] abbreviates: P. falciparum D6 (sensitive to chloroquine and pyrimethamine), [3H]-hypoxanthine incorporation, read-out: D6 IC50.

Where a name gives a salt, the structure may show the parent alone. Read-outs that look alike come from different tables or passages of the source. Marks after values point to notes of the source that are not given here.

Take `CCN(CC)CCCC(C)Nc1ccnc2cc(Cl)ccc12` (stereo not drawn) [Chloroquine, chloroquine, reference compound]: the IC50 in the assay on P. falciparum strain W2 (W2, read-out: W2 IC50) is 133 nM; in the assay with P. falciparum strain D6 (D6, read-out: D6 IC50), 12 nM. Moreover, the “Average Days Survival” value in assay [1] (setting [2]) was 10.3 days; in assay [1] (setting [3]), greater than 18.8 days; in assay [1] (setting [4]) it was greater than 18.6 days; in assay [1] (128 mg/kg/day oral, bid on days 3, 4 and 5), greater than 21.3 days. Also, in assay [1] (setting [5]), the responders at 4 mg/kg amounted to 0%. The responders at 16 mg/kg in assay [1] (setting [5]) was 14.3%. Besides, the responders at 64 mg/kg in assay [1] (setting [5]) was 28.6%. Moreover, in assay [1] (setting [5]), the responders at 128 mg/kg was 57.1%.

In the case of `CC(C)(C)NCc1cc(C(C)(C)C)cc(-c2cnc(Cl)c(Cl)c2)c1O.Cl` [Example 41, 4-(tert-Butyl)-2-((tert-butylamino)methyl)-6-(5,6-dichloropyridin-3-yl)phenol hydrochloride], the IC50 is 3 nM in the assay on P. falciparum strain W2 (setting [6]) and 10 nM in the assay on P. falciparum strain D6 (setting [14]). Also, the “Average Days Survival” value in assay [1] (setting [2]), in assay [1] (setting [7]), in assay [1] (setting [3]), in assay [1] (setting [8]) and in assay [1] (setting [4]) was >31* days each time. In addition, the responders at 4 mg/kg in assay [1] (setting [9]) is 100%. Moreover, the responders at 8 mg/kg in assay [1] (setting [10]) is 100%. Further, the responders at 16 mg/kg in assay [1] (setting [11]) was 100%. Besides, the responders at 32 mg/kg in assay [1] (setting [12]) is 100%. Besides, the responders at 64 mg/kg in assay [1] (setting [13]) was 100%.

On to `CC(C)(C)NCc1cc(C(C)(C)C)cc(-c2cnc(C(F)(F)F)c(Cl)c2)c1O.Cl` [Example 44, 4-(tert-Butyl)-2-((tert-butylamino)methyl)-6-(5-chloro-6-(trifluoromethyl)pyridin-3-yl)phenol hydrochloride], for which the IC50 was determined as 6 nM in the assay with P. falciparum strain W2 (setting [6]) and 11 nM in the assay on P. falciparum strain D6 (setting [14]). In addition, the “Average Days Survival” value in assay [1] (setting [2]), in assay [1] (setting [7]), in assay [1] (setting [3]), in assay [1] (setting [8]) and in assay [1] (setting [4]) was >31* days each time. Moreover, the responders at 4 mg/kg in assay [1] (setting [9]) is 100%. In assay [1] (setting [10]), the responders at 8 mg/kg is 100%. In addition, in assay [1] (setting [11]), the responders at 16 mg/kg is 100%. Also, the responders at 32 mg/kg in assay [1] (setting [12]) is 100%. The responders at 64 mg/kg in assay [1] (setting [13]) is 100%.

For `CC(C)(C)c1cc(CN(CC2CCCCC2)C(C)(C)C)c(O)c(-c2ccc(C(F)(F)F)nc2)c1.Cl` [Example 58, 4-(tert-Butyl)-2-((tert-butyl(cyclohexylmethyl)amino)methyl)-6-(6-(trifluoromethyl)pyridin-3-yl)phenol hydrochloride], the IC50 with P. falciparum strain W2 (setting [6]) was 541 nM; in the assay on P. falciparum strain D6 (setting [14]) it was 1020 nM. Further, the “Average Days Survival” value is greater than 17.5 days in assay [1] (setting [2]); greater than 20 days in assay [1] (setting [7]); greater than 23.8 days in assay [1] (setting [3]); greater than 26 days in assay [1] (setting [8]); >31* days in assay [1] (setting [4]). Further, the responders at 4 mg/kg in assay [1] (setting [9]) is 14.3%. Moreover, the responders at 8 mg/kg in assay [1] (setting [10]) was 42.9%. For the same compound, the responders at 16 mg/kg in assay [1] (setting [11]) is 42.9%. Moreover, the responders at 32 mg/kg in assay [1] (setting [12]) was 85.7%. Further, the responders at 64 mg/kg in assay [1] (setting [13]) is 100%.

As for `CC(C)(C)NCc1cc(-c2ccc(F)cc2)cc(-c2ccc(C(F)(F)F)nc2)c1O.Cl` [Example 66, 3-((tert-Butylamino)methyl)-4′-fluoro-5-(6-(trifluoromethyl)pyridin-3-yl)-[1,1′-biphenyl]-4-ol hydrochloride], the values for the IC50 in the assay on P. falciparum strain W2 (setting [6]) and in the assay on P. falciparum strain D6 (setting [14]) were 41 nM and 70 nM, respectively. Further, the “Average Days Survival” value in assay [1] (setting [2]) is greater than 21.3 days; in assay [1] (setting [7]), greater than 26 days; in assay [1] (setting [3]), >31* days; in assay [1] (setting [8]), greater than 24 days; in assay [1] (setting [4]), greater than 7 days. In assay [1] (setting [9]), the responders at 4 mg/kg is 14.3%. Further, in assay [1] (setting [10]), the responders at 8 mg/kg is 85.7%. In addition, the responders at 16 mg/kg in assay [1] (setting [11]) is 100%. Also, in assay [1] (setting [12]), the responders at 32 mg/kg was 85.7%. The responders at 64 mg/kg in assay [1] (setting [13]) was 85.7%.

For `CC(C)(C)NCc1cc(-c2ccc(Cl)cc2)cc(-c2ccc(C(F)(F)F)nc2)c1O.Cl` [Example 70, 3-((tert-Butylamino)methyl)-4′-chloro-5-(6-(trifluoromethyl)pyridin-3-yl)-[1,1′-biphenyl]-4-ol hydrochloride], the IC50 in the assay with P. falciparum strain W2 (setting [6]) worked out at 48 nM; in the assay with P. falciparum strain D6 (setting [14]), 90 nM. For the same compound, the “Average Days Survival” value in assay [1] (setting [2]) was greater than 19.5 days; in assay [1] (setting [7]) it was greater than 21.5 days; in assay [1] (setting [3]), greater than 19 days; in assay [1] (setting [8]) it was >31* days; in assay [1] (setting [4]), >31* days. For the same compound, the responders at 4 mg/kg in assay [1] (setting [9]) was 42.9%. In addition, the responders at 8 mg/kg in assay [1] (setting [10]) was 71.4%. Moreover, in assay [1] (setting [11]), the responders at 16 mg/kg is 57.1%. In addition, in assay [1] (setting [12]), the responders at 32 mg/kg is 100%. In addition, the responders at 64 mg/kg in assay [1] (setting [13]) was 100%.

As for `CC(C)(C)NCc1cc(C#N)cc(-c2ccc(C(F)(F)F)nc2)c1O` [Example 71, 3-((tert-Butylamino)methyl)-4-hydroxy-5-(6-(trifluoromethyl)pyridin-3-yl)benzonitrile hydrochloride], the 50% inhibitory concentration (IC50) came to 50700 nM with P. falciparum strain W2 (setting [6]) and 93100 nM with P. falciparum strain D6 (setting [14]).

Take `CC(C)(C)NCc1cc(S(C)(=O)=O)cc(-c2ccc(C(F)(F)F)nc2)c1O` [Example 72, 2-((tert-Butylamino)methyl)-4-(methylsulfonyl)-6-(6-(trifluoromethyl)pyridin-3-yl)phenol hydrochloride]: the results for the concentration for half-maximal inhibition (IC50) with P. falciparum strain W2 (setting [6]) and with P. falciparum strain D6 (setting [14]) were 81600 nM and 125000 nM, respectively.

Turning to `CC(NC(C)(C)C)c1cc(C(C)(C)C)cc(-c2ccc(C(F)(F)F)nc2)c1O` (stereo not drawn) [Example 73, 4-(tert-Butyl)-2-(1-(tert-butylamino)ethyl)-6-(6-(trifluoromethyl)pyridin-3-yl)phenol hydrochloride], the IC50 in the assay on P. falciparum strain W2 (setting [6]) was 2740 nM; with P. falciparum strain D6 (setting [14]) it was 1860 nM.

For the compound `CC(C)(C)NCc1cc(-c2ccc(Cl)cc2)nc(-c2ccc(C(F)(F)F)nc2)c1O` [Example 74, 4-((tert-Butylamino)methyl)-6-(4-chlorophenyl)-6′-(trifluoromethyl)-[2,3′-bipyridin]-3-ol 1.1hydrochloride], the IC50 with P. falciparum strain W2 (setting [6]) was 23 nM; in the assay on P. falciparum strain D6 (setting [14]), 54 nM.

On to `CC(C)(C)c1cc2c(c(-c3ccc(C(F)(F)F)nc3)c1)OCN(C(C)(C)C)C2` [Example 75, 3,6-di-tert-Butyl-8-(6-(trifluoromethyl)pyridin-3-yl)-3,4-dihydro-2H-benzo[e][1,3]oxazine], for which the IC50 came to 12 nM with P. falciparum strain W2 (setting [6]) and 20 nM in the assay on P. falciparum strain D6 (setting [14]). In addition, the “Average Days Survival” value in assay [1] (setting [2]) is greater than 22 days; in assay [1] (setting [7]), greater than 25 days; in assay [1] (setting [3]), >31* days; in assay [1] (setting [8]), >31* days; in assay [1] (setting [4]), >31* days. The responders at 4 mg/kg in assay [1] (setting [9]) was 57.1%. Also, the responders at 8 mg/kg in assay [1] (setting [10]) was 57.1%. The responders at 16 mg/kg in assay [1] (setting [11]) is 100%. Also, in assay [1] (setting [12]), the responders at 32 mg/kg was 100%. Further, the responders at 64 mg/kg in assay [1] (setting [13]) was 100%.

The values above are taken from patent US9409893B2, “Heteroaryl derivatives and uses thereof” (Jacobus Pharmaceutical Company, Inc., priority 2012, dated 2016).
